The source of these data is patent publication US5041436A, “1-arylsulphonyl-2-piperidinone derivatives, process and intermediates for the preparation thereof, their application as antispasmodics and compositions containing them” (Roussel Uclaf, priority 1989, dated 1991).

Assay [1] concerns isolated guinea pig ileum. In words: Agonist action on isolated guinea pig ileum. Particulars: negative logarithm of the dose which produces 50% of maximum effect. How it is done:
(§1) The interaction of the compounds with different receptors was assessed on isolated guinea pig ileum according to the following method.
(§2) Guinea pig ileum segments measuring 2.5-3 cm were washed and immediately suspended in a bath containing 10 ml of Tyrode's solution at 37° C. aerated with a mixture of oxygen (95%) and carbon dioxide (5%). After a stabilization period of at least 30 minutes, the contractions were recorded, maintaining the preparation under constant tension of 1 g using a gauge connected to a polygraph. The agonist action was assessed by leaving the compound in contact with the isolated tissue for a period necessary for expressing the maximal contraction; the preparation was then washed with Tyrode's solution. The next dose was added to the bath only after the preparation had returned to its base line. As a reference product, arecoline was employed. The antagonist action was assessed on contractions induced by acetyl choline (1×10^-6 M), histamine (1×10^-5 M) and barium chloride (2×10^-4 M). Atropine, diphenhydramine and papaverine were emplohyed as reference products. The contact time before adding the agonist was one minute.
(§3) For each compound, the dose-response curves are obtained with 4 to 6 different concentrations and 3 to 5 independent tests. The agonist activity is expressed by pD2 (negative logarithm of the dose which produces 50% of maximum effect). The antagonist activity is expressed by IC50 (concentration inhibiting 50% of the maximal response).

Assay [2] relates to cholinomimetic effects induced by carbachol. In words: In vivo anticholinergic action: inhibition of cholinomimetic effects induced by carbachol in mice. Details: species or system CD1 male mice. Particulars: Mus musculus, ip. Here is the method: The anticholinergic activity of the compounds was determined by assessing the capacity to inhibit the cholinomimetic effects induced by carbachol. Atropine sulphate was employed as a reference product.
CD1 male mice weighing 25 to 30 g were used. They were distributed in groups of 6 animals and treated intraperitoneally with scalar doses of the products or 0.25% Methocel for the controls. 12 animals were used for each dose. 30 minutes after administration of the compounds, the mice were injected subcutaneously with 1 mg/kg of carbachol dissolved in physiological saline.
Each animal was examined 30 minutes after the injection of carbachol to assess the presence of diarrhoea, salivation and eye watering; in addition, the body temperature was measured by means of a thermocouple inserted 1.5 cm into the rectum.
For each compound, we have determined and recorded in the following table the dose capable of inhibiting the appearance of the carbachol-induced cholinometric symptoms in 50% of the animals, and of increasing by 1° C. the hypothermic effect induced by the cholinergic agent.

Assay [3] deals with isolated guinea pig ileum, contractions induced by acetyl choline. In words: Antagonist action on contractions induced by acetyl choline, isolated guinea pig ileum. Particulars: acetyl choline 1×10^-6 M; contact time one minute; 37° C.; read-out: Antagonist to different agents (IC50), ACh. How it is done:
as §1, §2, §3

Assay [4] concerns isolated guinea pig ileum, contractions induced by barium chloride. In words: Antagonist action on contractions induced by barium chloride, isolated guinea pig ileum. Particulars: barium chloride 2×10^-4 M; contact time one minute; 37° C.; read-out: Antagonist to different agents (IC50), BaCl2. Here is the method: as §1, §2, §3

Structures are written as SMILES. pIC50: −log10 of the molar value. Like-named read-outs stand apart in the source and are kept apart here.

As to `COC(=O)C1=CCCN(C)C1` [Arecoline, arecoline, reference compound], the “Agonist action pD2” value in assay [1] is on record as 6.68.

For the molecule `CN1[C@@H]2CC[C@H]1C[C@@H](OC(=O)C(CO)c1ccccc1)C2` (stereo partly drawn) [Atropine, reference compound], the ED50 in assay [2] (read-out: Dose inhibiting carbachol-induced diarrhoea in 50% of the animals) turned out to be 0.04 mg/kg; in assay [2] (read-out: Dose inhibiting carbachol-induced eye watering in 50% of the animals) it was 0.05 mg/kg; in assay [2] (read-out: Dose inhibiting carbachol-induced salivation in 50% of the animals), 0.06 mg/kg. In addition, the pIC50 in assay [3] is 8.02.

In the case of `COc1ccc(Cc2nccc3cc(OC)c(OC)cc23)cc1OC` [Papaverine, papaverine, reference compound], in assay [4], the pIC50 was 4.35.
